Experimental data reported in paper PMC12524796, “Discovery of Galloyl–Flavonoid Conjugates as SARS-CoV-2 3CL^pro Inhibitors: Understanding Binding Interactions Through Computational Approaches” (International Journal of Molecular Sciences, 2025).
Where two headings read alike, the source gives them in different places.

What was measured:
SARS-CoV-2 3CL^pro [1] = molecular target: T1, SARS-CoV-2 3CL^pro (Severe acute respiratory syndrome coronavirus 2, UniProt P0DTD1); experiment: biochemical; assay type: biochemical; details: for inhibition at 100 µM: read-out: SARS-CoV-2 3CL^pro Inhibition 100 µM (%)
SARS-CoV-2 3CL^pro [2] = molecular target: T1, SARS-CoV-2 3CL^pro; set-up: method as in PMID 38277124
3CL^pro = test system: 3CL^pro; set-up: method as in PMID 32272481; details: read-out: IC50 against 3CL^pro; cited from earlier work
[3] = FRET assay, read-out: SARS-CoV-2 3CL^pro Inhibition IC50
[4] = 100 µM compound; values marked footnote 3; cited from earlier work
[5] = read-out: SARS-CoV-2 3CL^pro Inhibition IC50; values marked footnote 3; cited from earlier work
[6] = values marked footnote 3; read-out: SARS-CoV-2 3CL^pro Inhibition IC50; cited from earlier work

C=CC(=O)Oc1cc(OC)cc2oc(-c3ccccc3)cc(=O)c12 [Compound 19, 5-O-acryloyltectochrysin]
inhibition at 100 µM (SARS-CoV-2 3CL^pro [1]; 100 µM compound, FRET assay): 37.2 ± 2.09% | IC50 (SARS-CoV-2 3CL^pro [1]; [3]): > 100 µM

COc1cc(O)cc(O)c1C(=O)/C=C/c1ccccc1 [Compound 8, cardamonin]
SARS-CoV-2 3CL^pro Inhibition 100 µM (%) (SARS-CoV-2 3CL^pro [2]; [4]): 85.60 ± 2.44 ^3% | IC50 (SARS-CoV-2 3CL^pro [2]; [5]): 57.4 µM

COc1cc(OC(=O)c2cc(O)c(O)c(O)c2)c2c(c1)O[C@H](c1ccccc1)CC2=O [Compound 31, 5-O-galloylpinostrobin]
inhibition at 100 µM (SARS-CoV-2 3CL^pro [1]; 100 µM compound, FRET assay): > 99% | IC50 (SARS-CoV-2 3CL^pro [1]; [3]): 7.42 µM | increase of 3CL^pro inhibitory activity compared with the parent compound (SARS-CoV-2 3CL^pro [1]; versus parent compound): over 23 fold

CC(=O)Oc1ccccc1C(=O)Oc1cc(O)c2c(c1)O[C@H](c1ccccc1)CC2=O [Compound 33, 7-O-(O-acetylsalicyloyl)pinocembrin]
inhibition at 100 µM (SARS-CoV-2 3CL^pro [1]): 81.7 ± 0.89%

COc1c(C)c(O)c(C)c(O)c1C(=O)/C=C/c1ccccc1 [Compound 9, dimethylcardamonin]
SARS-CoV-2 3CL^pro Inhibition 100 µM (%) (SARS-CoV-2 3CL^pro [2]; [4]): 84.59 ± 0.84 ^3% | IC50 (SARS-CoV-2 3CL^pro [2]; [6]): 27.5 µM

COc1cc2c(c(O)c1[N+](=O)[O-])C(=O)C[C@@H](c1ccccc1)O2 [Compound 23, 6-nitropinostrobin]
inhibition at 100 µM (SARS-CoV-2 3CL^pro [1]): 53.5 ± 4.31%

C=CC(=O)Oc1cc(O)c2c(c1)O[C@H](c1ccccc1)CC2=O [Compound 13, 7-O-acryloylpinocembrin]
inhibition at 100 µM (SARS-CoV-2 3CL^pro [1]): 79.2 ± 1.52%

COc1c([N+](=O)[O-])c(O)c2c(c1[N+](=O)[O-])O[C@H](c1ccccc1)CC2=O [Compound 24, 6,8-dinitropinostrobin]
IC50 (SARS-CoV-2 3CL^pro [1]): > 100 µM | inhibition at 100 µM (SARS-CoV-2 3CL^pro [1]): 40 ± 3.27%

COc1cc(OC(=O)c2cc(OC(C)=O)c(OC(C)=O)c(OC(C)=O)c2)c2c(c1)O[C@H](c1ccccc1)CC2=O [Compound 30, 5-O-(tri-O-acetylgalloyl)pinostrobin]
inhibitory activity at 100 µM (in words) (SARS-CoV-2 3CL^pro [1]): moderate inhibitory activity | inhibition at 100 µM (SARS-CoV-2 3CL^pro [1]): 67.1 ± 2.93%

CC(=O)Oc1cc(C(=O)Oc2cc(O)c3c(c2)O[C@H](c2ccccc2)CC3=O)cc(OC(C)=O)c1OC(C)=O [Compound 35, 7-O-(tri-O-acetylgalloyl)pinocembrin]
inhibitory activity at 100 µM (in words) (SARS-CoV-2 3CL^pro [1]): moderate inhibitory activity | inhibition at 100 µM (SARS-CoV-2 3CL^pro [1]): 73 ± 1.66%

COc1c(C)c(OC(=O)c2cc(OC(C)=O)c(OC(C)=O)c(OC(C)=O)c2)c(C)c(O)c1C(=O)/C=C/c1ccccc1 [Compound 39, 4′-O-(tri-O-acetylgalloyl)-DMC]
inhibitory activity at 100 µM (in words) (SARS-CoV-2 3CL^pro [1]): moderate inhibitory activity | inhibition at 100 µM (SARS-CoV-2 3CL^pro [1]): 72 ± 4.27%

O=c1c2ccccc2[se]n1-c1ccccc1 [Ebselen]
IC50 (3CL^pro): 0.67 µM

C=CC(=O)Oc1cc(OC(=O)C=C)c2c(c1)O[C@H](c1ccccc1)CC2=O [Compound 14, 5,7-O-diacryloylpinocembrin]
inhibition at 100 µM (SARS-CoV-2 3CL^pro [1]): 76.2 ± 0.97%

COc1cc(OC(=O)c2ccccc2OC(C)=O)c2c(c1)O[C@H](c1ccccc1)CC2=O [Compound 28, 5-O-(O-acetylsalicyloyl)pinostrobin]
inhibition at 100 µM (SARS-CoV-2 3CL^pro [1]): 89.7 ± 5.92%

C=CC(=O)Oc1cc(OC(=O)C=C)c2c(=O)cc(-c3ccccc3)oc2c1 [Compound 21, 5,7-O-diacryloylchrysin]
inhibition at 100 µM (SARS-CoV-2 3CL^pro [1]; 100 µM compound, FRET assay): 32.3 ± 4.83% | IC50 (SARS-CoV-2 3CL^pro [1]; [3]): > 100 µM

COc1cc(O)c2c(c1N)O[C@H](c1ccccc1)CC2=O [Compound 25, 8-aminopinostrobin]
inhibition at 100 µM (SARS-CoV-2 3CL^pro [1]; 100 µM compound, FRET assay): 38.2 ± 3.74% | IC50 (SARS-CoV-2 3CL^pro [1]; [3]): > 100 µM

O=C(Oc1cc(O)c2c(c1)O[C@H](c1ccccc1)CC2=O)c1cc(O)c(O)c(O)c1 [Compound 36, 7-O-galloylpinocembrin]
inhibition at 100 µM (SARS-CoV-2 3CL^pro [1]; 100 µM compound, FRET assay): > 99% | IC50 (SARS-CoV-2 3CL^pro [1]; [3]): 7.53 µM

C=CC(=O)Oc1cc(OC)c(C(=O)/C=C/c2ccccc2)c(OC(=O)C=C)c1 [Compound 17, 2′,4′-O-diacryloylcardamonin]
inhibition at 100 µM (SARS-CoV-2 3CL^pro [1]): 76.8 ± 4.85%

COc1cc(O)c2c(=O)cc(-c3ccccc3)oc2c1 [Compound 10, tectochrysin]
SARS-CoV-2 3CL^pro Inhibition 100 µM (%) (SARS-CoV-2 3CL^pro [2]; [4]): 86.39 ± 0.19 ^3% | IC50 (SARS-CoV-2 3CL^pro [2]; [5]): 24 µM

COc1cc(OC(=O)c2ccc(OC(C)=O)c(OC)c2)c2c(c1)O[C@H](c1ccccc1)CC2=O [Compound 29, 5-O-(O-acetylvanilloyl)pinostrobin]
inhibition at 100 µM (SARS-CoV-2 3CL^pro [1]): 84.4 ± 3.91%

O=C1C[C@@H](c2ccccc2)Oc2cc(O)cc(O)c21 [Compound 7, pinocembrin]
SARS-CoV-2 3CL^pro Inhibition 100 µM (%) (SARS-CoV-2 3CL^pro [2]; [4]): 27.18 ± 2.20 ^3% | IC50 (SARS-CoV-2 3CL^pro [2]; [5]): > 200 µM

COc1cc2c(c(O)c1N)C(=O)C[C@@H](c1ccccc1)O2 [Compound 26, 6-aminopinostrobin]
inhibition at 100 µM (SARS-CoV-2 3CL^pro [1]; 100 µM compound, FRET assay): 14.7 ± 5.85% | IC50 (SARS-CoV-2 3CL^pro [1]; [3]): > 100 µM

O=c1cc(-c2ccccc2)oc2cc(O)c(O)c(O)c12 [Compound 1, baicalein, reference compound]
SARS-CoV-2 3CL^pro Inhibition 100 µM (%) (SARS-CoV-2 3CL^pro [2]; [4]): 62.95 ± 3.10 ^3%

COc1cc(OC(=O)c2cc(O)c(O)c(O)c2)cc(O)c1C(=O)/C=C/c1ccccc1 [Compound 38, 4′-O-galloylcardamonin]
inhibition at 100 µM (SARS-CoV-2 3CL^pro [1]; 100 µM compound, FRET assay): > 99% | IC50 (SARS-CoV-2 3CL^pro [1]; [3]): 13.3 µM

COc1cc(O)c2c(c1)O[C@H](c1ccccc1)CC2=O [Compound 6, pinostrobin]
SARS-CoV-2 3CL^pro Inhibition 100 µM (%) (SARS-CoV-2 3CL^pro [2]; [4]): 26.44 ± 2.32 ^3% | IC50 (SARS-CoV-2 3CL^pro [2]; [5]): > 200 µM

C=CC(=O)Oc1cc(O)c2c(=O)cc(-c3ccccc3)oc2c1 [Compound 20, 7-O-acryloylchrysin]
inhibition at 100 µM (SARS-CoV-2 3CL^pro [1]): 84.01 ± 0.82%

C=CC(=O)Oc1c(C)c(O)c(C(=O)/C=C/c2ccccc2)c(OC)c1C [Compound 16, 4′-O-acryloyl-DMC]
inhibition at 100 µM (SARS-CoV-2 3CL^pro [1]): 52.9 ± 1.17%

C=CC(=O)Oc1c(C)c(OC)c(C(=O)/C=C/c2ccccc2)c(OC(=O)C=C)c1C [Compound 18, 2′,4′-O-diacryloyl-DMC]
inhibition at 100 µM (SARS-CoV-2 3CL^pro [1]): 68 ± 3.77%

O=C(O)c1cc(O)c(O)c(O)c1 [gallic acid, reference compound]
IC50 (SARS-CoV-2 3CL^pro [1]): > 100 µM | inhibition at 100 µM (SARS-CoV-2 3CL^pro [1]): 1.72 ± 12.1%

O=c1cc(-c2ccccc2)oc2cc(O)cc(O)c12 [Compound 11, chrysin]
SARS-CoV-2 3CL^pro Inhibition 100 µM (%) (SARS-CoV-2 3CL^pro [2]; [4]): 87.73 ± 0.66 ^3% | IC50 (SARS-CoV-2 3CL^pro [2]; [6]): 32.8 µM

COc1cc(OC(=O)c2cc(OC(C)=O)c(OC(C)=O)c(OC(C)=O)c2)c2c(=O)cc(-c3ccccc3)oc2c1 [Compound 41, 5-O-(tri-O-acetylgalloyl)tectochrysin]
inhibitory activity at 100 µM (in words) (SARS-CoV-2 3CL^pro [1]): moderate inhibitory activity | inhibition at 100 µM (SARS-CoV-2 3CL^pro [1]): 72.8 ± 2.43%

C=CC(=O)Oc1cc(O)c(C(=O)/C=C/c2ccccc2)c(OC)c1 [Compound 15, 4′-O-acryloylcardamonin]
inhibition at 100 µM (SARS-CoV-2 3CL^pro [1]): 66.6 ± 2.05%

COc1cc(OC(=O)c2cc(O)c(O)c(O)c2)c2c(=O)cc(-c3ccccc3)oc2c1 [Compound 42, 5-O-galloyltectochrysin]
inhibition at 100 µM (SARS-CoV-2 3CL^pro [1]; 100 µM compound, FRET assay): > 99% | IC50 (SARS-CoV-2 3CL^pro [1]; [3]): 20.6 µM

COc1c(C)c(OC(=O)c2cc(O)c(O)c(O)c2)c(C)c(O)c1C(=O)/C=C/c1ccccc1 [Compound 40, 4′-O-galloyl-DMC]
inhibition at 100 µM (SARS-CoV-2 3CL^pro [1]; 100 µM compound, FRET assay): > 99% | IC50 (SARS-CoV-2 3CL^pro [1]; [3]): 6.85 µM

COc1cc(O)c2c(c1[N+](=O)[O-])O[C@H](c1ccccc1)CC2=O [Compound 22, 8-nitropinostrobin]
inhibition at 100 µM (SARS-CoV-2 3CL^pro [1]): 55 ± 3.96%

O=C(Oc1cc(O)c2c(c1)O[C@H](c1ccccc1)CC2=O)c1ccccc1 [Compound 32, 7-O-benzoylpinocembrin]
inhibition at 100 µM (SARS-CoV-2 3CL^pro [1]): 70.8 ± 2.72%

CC(=O)Oc1cc(C(=O)Oc2cc(O)c3c(=O)cc(-c4ccccc4)oc3c2)cc(OC(C)=O)c1OC(C)=O [Compound 43, 7-O-(tri-O-acetylgalloyl)chrysin]
inhibitory activity at 100 µM (in words) (SARS-CoV-2 3CL^pro [1]): moderate inhibitory activity | inhibition at 100 µM (SARS-CoV-2 3CL^pro [1]): 85.75 ± 0.48%

COc1cc(OC(=O)c2cc(OC(C)=O)c(OC(C)=O)c(OC(C)=O)c2)cc(O)c1C(=O)/C=C/c1ccccc1 [Compound 37, 4′-O-(tri-O-acetylgalloyl)cardamonin]
inhibitory activity at 100 µM (in words) (SARS-CoV-2 3CL^pro [1]): moderate inhibitory activity | inhibition at 100 µM (SARS-CoV-2 3CL^pro [1]): 87.2 ± 3.25%

COc1cc(C(=O)Oc2cc(O)c3c(c2)O[C@H](c2ccccc2)CC3=O)ccc1OC(C)=O [Compound 34, 7-O-(O-acetylvanilloyl)pinocembrin]
inhibition at 100 µM (SARS-CoV-2 3CL^pro [1]): 83.7 ± 3.37%

COc1cc(OC(=O)c2ccccc2)c2c(c1)O[C@H](c1ccccc1)CC2=O [Compound 27, 5-O-benzoylpinostrobin]
inhibition at 100 µM (SARS-CoV-2 3CL^pro [1]; 100 µM compound, FRET assay): 43.4 ± 3.99% | IC50 (SARS-CoV-2 3CL^pro [1]; [3]): > 100 µM

O=C(Oc1cc(O)c2c(=O)cc(-c3ccccc3)oc2c1)c1cc(O)c(O)c(O)c1 [Compound 44, 7-O-galloylchrysin]
inhibition at 100 µM (SARS-CoV-2 3CL^pro [1]; 100 µM compound, FRET assay): > 99% | IC50 (SARS-CoV-2 3CL^pro [1]; [3]): 9.26 µM
